Source: patent US20180092934A1, “COMPOSITION FOR DNA PROTECTION” (priority 2016, published 2018)

Assays:
[1] = test system: alcohol induced DNA damage; test: Comet assay (SCGE) on whole blood, alcohol-induced DNA damage in rats; assay type: in vivo, Male Wistar albino rats; conditions: single oral dose in 30% alcohol 4 gm/kg, 4 hr data, n = 4
From the text: The Single Cell Gel Electrophoresis assay (SCGE, also known as comet assay) is a straightforward and sensitive technique for the detection of DNA damage at the level of the individual eukaryotic cell. It is being used as a standard technique for evaluation of DNA damage/repair, biomonitoring and genotoxicity testing. It involves the encapsulation of cells in a low-melting-point agarose suspension, lysis of the cells in neutral or alkaline (pH>13) conditions, and electrophoresis of the suspended lysed cells. The term “comet” refers to the pattern of DNA migration through the electrophoresis gel, which often resembles a comet (Cheng-Hung Chuang, Miao-Lin Hu. Use of whole blood directly for single-cell gel electrophoresis (comet) assay in vivo and white blood cells for in vitro assay. Mutation Research; 564 (2004) 75-82.).
(§1) Saline/Alcohol (4.0 gm/kg/day, p.o.)/Formulation with alcohol (4.0 gm/kg/day, p.o.) were administered (fed orally by orogastric cannula) for one day. Blood samples were collected before administration of the Saline/Alcohol/Formulation with alcohol and designated as ‘0’ hour, then 2 and 4 hours after the dose. For comet assay one part of the blood was collected in heparinised tube and the other part was allowed to clot to get serum for 8-OHdG assay. Single cell gel electrophoresis (SCGE, the Comet assay) was carried out using whole blood (Cheng-Hung Chuang, Miao-Lin Hu. Use of whole blood directly for single-cell gel electrophoresis (comet) assay in vivo and white blood cells for in vitro assay. Mutation Research; 564 (2004) 75-82.). In short, 15 μl of whole blood was mixed with low melting agarose and fixed on a microscope slide. Those are then lysed by buffer enriched with detergent and high salt. Concomitant electrophoresis at alkaline pH results in unwinding of DNA followed by structures close to comets, when observed by fluorescence microscopy. The intensity of the comet tail relative to the head presents the number of DNA breaks. The probable basis for this is that loops containing a break lose their super coiling and become free to extend toward the anode. This is followed by visual analysis with staining of DNA and calculating fluorescence to determine the extent of DNA damage (Collins, A. R. (2004). “The comet assay for DNA damage and repair: principles, applications, and limitations”. Mol. Biotechnol. 26 (3): 249-261). 8-hydroxy-2-deoxyguanosine was estimated (8-OHdG) by ELISA kit using competitive-ELISA as the method. The microtiter plate is pre-coated with 8-OHdG. 8-OHdG in the sample or standard competes with a fixed amount of 8-OHdG on the solid phase supporter for sites on the Biotinylated Detection Ab specific to 8-OHdG. Excess conjugate and unbound sample or standard were washed from the plate, and Avidin conjugated to Horseradish Peroxidase (HRP) is added to each microplate well. After incubation a TMB substrate solution is added to each well. The enzyme-substrate reaction is terminated by the addition of a sulphuric acid solution and the color change was measured by plate reader at a wavelength of 450 nm±2 nm. The concentration of 8-OHdG in the samples was then determined by comparing the OD of the samples to the standard curve (Szymańska-Chabowska A et al, Evaluation of DNA Damage in People Occupationally Exposed to Arsenic and Some Heavy Metals. Polish J. of Environ. Stud. Vol. 18, No. 6 (2009), 1131-1139).
(§2) % Protection=1−[(T−NS)/(AL−NS)]×100
(§3) T=Mean value of drug treated, NS=Mean value of normal control, AL=Mean value of alcohol alone.
Male Wistar albino rats weighing 150-200 g were procured and randomly divided into groups consisting of four (4) animals in each group. DNA damage was induced by alcohol in rats by oral administration of 30% alcohol (4 gm/kg/p.o.) once (single dose) and this group served as the negative control and treated groups received different formulations. […]

[2] = test system: 8-hydroxy-2-deoxyguanosine (8-OHdG); test: Serum 8-OHdG ELISA, alcohol-induced DNA damage in rats; assay type: in vivo, Male Wistar albino rats; conditions: single oral dose in 30% alcohol 4 gm/kg, 4 hr data, n = 4
From the text: In nuclear and mitochondrial DNA, 8-hydroxy-2′-deoxyguanosine (8-OHdG) is one of the predominant forms of free radical-induced oxidative lesions, and is used as a biomarker for oxidative stress. Rat 8-OHdG ELISA kit from Elabscience is used for the assay. (Valavanidis A et al (2009). 8-hydroxy-2′-deoxyguanosine (8-OHdG): A critical biomarker of oxidative stress and carcinogenesis. J Environ Sci Health C Environ Carcinog Ecotoxicol Rev. 27(2):[…]).
as §1, §2, §3
Male Wistar albino rats weighing 150-200 g were procured and randomly divided into groups consisting of four (4) animals in each group. DNA damage was induced by alcohol in rats by oral administration of 30% alcohol (4 gm/kg/p.o.) once (single dose) and this group served as the negative control and treated groups received different formulations.
All drug solutions were prepared in 40% aqueous alcohol, adjusting the pH in the range of 5.0-10.0 for evaluation of alcohol induced DNA damage and protection against it. This solution was further diluted with distilled water to obtain 30% aqueous alcoholic solution and administered orally by gavage to different rats group of step (1a). […]

| Structure (SMILES) | COMET Protection [1] | 8OHdG Protection [2] |
| --- | --- | --- |
| CC1(C)[C@@H](O[C@H]2O[C@H](C(=O)O)[C@@H](O)[C@H](O)[C@H]2O[C@@H]2O[C@H](C(=O)O)[C@@H](O)[C@H](O)[C@H]2O)CC[C@]2(C)[C@H]3C(=O)C=C4[C@@H]5C[C@@](C)(C(=O)O)CC[C@]5(C)CC[C@@]4(C)[C@]3(C)CC[C@@H]12 [0.3 18β-GA, 18β-Glycyrrhizin] | 6.07% | 11.24% |
| CC1(C)[C@@H](O[C@H]2O[C@H](C(=O)O)[C@@H](O)[C@H](O)[C@H]2O[C@@H]2O[C@H](C(=O)O)[C@@H](O)[C@H](O)[C@H]2O)CC[C@]2(C)[C@H]3C(=O)C=C4[C@H]5C[C@@](C)(C(=O)O)CC[C@]5(C)CC[C@@]4(C)[C@]3(C)CC[C@@H]12 [0.3 18α-GA, 18α-Glycyrrhizin] | 5.78% | 10.46% |
| CC1(C)[C@@H](O[C@H]2O[C@H](C(=O)O)[C@@H](O)[C@H](O)[C@H]2O[C@@H]2O[C@H](C(=O)O)[C@@H](O)[C@H](O)[C@H]2O)CC[C@]2(C)[C@H]3C(=O)C=C4[C@@H]5C[C@@](C)(C(=O)O)CC[C@]5(C)CC[C@@]4(C)[C@]3(C)CC[C@@H]12 [0.04 18β-GA, 18β-Glycyrrhizin] | 0% | 0% |
| CC1(C)[C@@H](O[C@H]2O[C@H](C(=O)O)[C@@H](O)[C@H](O)[C@H]2O[C@@H]2O[C@H](C(=O)O)[C@@H](O)[C@H](O)[C@H]2O)CC[C@]2(C)[C@H]3C(=O)C=C4[C@@H]5C[C@@](C)(C(=O)O)CC[C@]5(C)CC[C@@]4(C)[C@]3(C)CC[C@@H]12 [0.1 18β-GA, 18β-Glycyrrhizin] | 0.97% | 3.55% |
| CC1(C)[C@@H](O[C@H]2O[C@H](C(=O)O)[C@@H](O)[C@H](O)[C@H]2O[C@@H]2O[C@H](C(=O)O)[C@@H](O)[C@H](O)[C@H]2O)CC[C@]2(C)[C@H]3C(=O)C=C4[C@H]5C[C@@](C)(C(=O)O)CC[C@]5(C)CC[C@@]4(C)[C@]3(C)CC[C@@H]12 [0.1 18α-GA, 18α-Glycyrrhizin] | 0.59% | 4.20% |
| OC[C@@H](O)[C@@H](O)CO [2.5 Ery, D-Erythritol] | 34.71% | 37.28% |
| OC[C@@H](O)[C@@H](O)CO [0.8 Ery, D-Erythritol] | 8.25% | 15.98% |
| OC[C@@H](O)[C@@H](O)CO [1.2 Ery, D-Erythritol] | 18.69% | 23.08% |
| OC[C@@H](O)[C@@H](O)[C@H](O)[C@H](O)CO [0.8 Man, D-Mannitol] | 9.22% | 14.20% |
| OC[C@@H](O)[C@@H](O)[C@H](O)[C@H](O)CO [1.2 Man, D-Mannitol] | 13.59% | 24.85% |
| OC[C@@H](O)[C@@H](O)[C@H](O)[C@H](O)CO [2.5 Man, D-Mannitol] | 33.98% | 40.24% |
| OC[C@@H](O)[C@@H](O)[C@H](O)[C@H](O)CO [0.5 Man, D-Mannitol] | 5.34% | 7.69% |
